From US20240383904A1, “HETEROCYCLIC COMPOUNDS” (Hoffmann-La Roche Inc., priority 2021, published 2024)

Target: T1, MAGL (Homo sapiens, UniProt Q99685)
T1 sequence (Q99685 1-303): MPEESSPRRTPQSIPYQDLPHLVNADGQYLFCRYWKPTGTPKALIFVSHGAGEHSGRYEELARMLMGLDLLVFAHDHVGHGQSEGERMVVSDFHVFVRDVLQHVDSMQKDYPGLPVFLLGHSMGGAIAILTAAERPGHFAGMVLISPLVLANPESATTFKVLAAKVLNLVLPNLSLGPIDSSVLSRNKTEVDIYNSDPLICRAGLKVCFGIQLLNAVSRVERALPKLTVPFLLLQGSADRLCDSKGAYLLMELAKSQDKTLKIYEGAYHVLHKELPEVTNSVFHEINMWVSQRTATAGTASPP
Assay: 2-AG assay: MAGL inhibitory activity by hydrolysis of 2-arachidonoylglycerol to arachidonic acid, followed by mass spectrometry
Format: biochemical
Settings: 15 min preincubation, 30 min reaction at RT, 8 μM 2-arachidonoylglycerol

N=[S@@](=O)(c1ccc(CC2CC3(C2)CN(C(=O)N2CC4(CCCC(=O)N4)C2)C3)cc1)C(F)(F)F (single isomer, unassigned) [Example 287, 2-[6-[[4-(trifluoromethylsulfoni-midoyl)phenyl]methyl]-2-azaspiro[3.3]heptane-2-carbonyl]-2,5-diazaspiro[3.5]nonan-6-one]
IC50: 437 nM

O=C1CCC2(CN(C(=O)N3CC4(CCN(Cc5ccc(C(F)(F)F)nc5)CC4)C3)C2)N1 [Example 148, 2-[7-[[6-(trifluoromethyl)-3-pyridyl]methyl]-2,7-diazaspiro[3.5]nonane-2-carbonyl]-2,5-diazaspiro[3.4]octan-6-one]
IC50: 123 nM

O=C1NC2(CO1)CN(C(=O)N1CC3(CC(OCC4(C(F)(F)F)CC4)C3)C1)C2 [Example 64, 2-[6-[[1-(trifluoromethyl)cyclopro-pyl]methoxy]-2-azaspiro[3.3]heptane-2-carbonyl]-7-oxa-2,5-diazaspiro[3.4]octan-6-one]
IC50: 1.28 nM

O=C1COCC2(CN(C(=O)N3CC4(CC[C@H](Cc5ccc(S(=O)(=O)C(F)(F)F)cc5)C4)C3)C2)N1 [Example 235, 2-[(6R)-6-[[4-(trifluoromethylsulfonyl)phenyl]methyl]-2-azaspiro[3.4]octane-2-carbonyl]-8-oxa-2,5-diazaspiro[3.5]nonan-6-one]
IC50: 7.35 nM

O=C1NC2(CO1)CN(C(=O)N1CC3(CC(Cc4nc(C(F)(F)F)cs4)C3)C1)C2 [Example 351, 2-[6-[[4-(trifluoromethyl)thiazol-2-yl]methyl]-2-azaspiro[3.3]heptane-2-carbonyl]-7-oxa-2,5-diazaspiro[3.4]octan-6-one]
IC50: 0.37 nM

N=S(=O)(c1cc(F)cc(CC2CC3(C2)CN(C(=O)N2CC4(CCC(=O)N4)C2)C3)c1)C(F)(F)F (centres unmarked) [Example 298, 2-[6-[[3-fluoro-5-(trifluoromethylsulfoni-midoyl)phenyl]methyl]-2-azaspiro[3.3]heptane-2-carbonyl]-2,5-diazaspiro[3.4]octan-6-one]
IC50: 0.83 nM

O=C1CCC2(CN(C(=O)N3CC4(CCC(Nc5cnc(C(F)(F)F)cn5)CC4)C3)C2)N1 [Example 129, 2-[7-[[5-(trifluoromethyl)pyrazin-2-yl]amino]-2-azaspiro[3.5]nonane-2-carbonyl]-2,5-diazaspiro[3.4]octan-6-one]
IC50: 66.7 nM

O=C1NC2(CO1)CN(C(=O)N1CC3(CC[C@H](Cc4cnc(C(F)(F)F)cn4)C3)C1)C2 [Example 111, 2-[(6S)-6-[[5-(trifluoromethyl)pyrazin-2-yl]methyl]-2-azaspiro[3.4]octane-2-carbonyl]-7-oxa-2,5-diazaspiro[3.4]octan-6-one]
IC50: 0.31 nM

O=C1CCC2(CN(C(=O)N3CC4(CCC(S(=O)(=O)c5cccc(C(F)(F)F)c5)CC4)C3)C2)N1 [Example 282, 2-[7-[3-(trifluoromethyl)phenyl]sulfonyl-2-azaspiro[3.5]nonane-2-carbonyl]-2,5-diazaspiro[3.4]octan-6-one]
IC50: 37.2 nM

Cn1cc(C(F)(F)F)c(CC2CC3(C2)CN(C(=O)N2CC4(CCC(=O)N4)C2)C3)n1 [Example 304, 2-[6-[[1-methyl-4-(trifluoromethyl)pyrazol-3-yl]methyl]-2-azaspiro[3.3]heptane-2-carbonyl]-2,5-diazaspiro[3.4]octan-6-one]
IC50: 3.73 nM

O=C1CCC2(CN(C(=O)N3CC4(CC[C@@H](Cc5ccc(S(=O)(=O)C(F)(F)F)cc5)C4)C3)C2)N1 [Example 222, 2-[(6S)-6-[[4-(trifluoromethylsulfonyl)phenyl]methyl]-2-azaspiro[3.4]octane-2-carbonyl]-2,5-diazaspiro[3.4]octan-6-one]
IC50: 2.27 nM

O=C1NC2(CO1)CN(C(=O)N1CC3(C1)CN(S(=O)(=O)c1ccc(F)cc1C(F)(F)F)C3)C2 [Example 195, 2-[2-[4-fluoro-2-(trifluoromethyl)phenyl]sulfonyl-2,6-diazaspiro[3.3]heptane-6-carbonyl]-7-oxa-2,5-diazaspiro[3.4]octan-6-one]
IC50: 2.51 nM

CS(=O)(=O)c1ccc(C[C@H]2CCC3(C2)CN(C(=O)N2CC4(COCC(=O)N4)C2)C3)cc1 (single isomer, unassigned) [Example 74]
IC50: 77.7 nM

CS(=O)(=O)c1cccc(CC2CC3(C2)CN(C(=O)N2CC4(COC(=O)N4)C2)C3)c1 [Example 33, 2-[6-(3-mesylbenzyl)-2-azaspiro[3.3]heptane-2-carbonyl]-7-oxa-2,5-diazaspiro[3.4]octan-6-one]
IC50: 0.87 nM

O=C1CCC2(CN(C(=O)N3CC4(CCN(Cc5cccc(S(=O)(=O)C(F)(F)F)c5)CC4)C3)C2)N1 [Example 136, 2-[7-(3-triflylbenzyl)-2,7-diazaspiro[3.5]nonane-2-carbonyl]-2,5-diazaspiro[3.4]octan-6-one]
IC50: 4.66 nM

CC1(NS(=O)(=O)N2CC3(CN(C(=O)N4CC5(COC(=O)N5)C4)C3)C2)CC1 [Example 193, N-(1-methylcyclopropyl)-6-(6-oxo-7-oxa-2,5-diazaspiro[3.4]octane-2-carbonyl)-2,6-diazaspiro[3.3]heptane-2-sulfonamide]
IC50: 65.3 nM

O=C1NC2(CO1)CN(C(=O)N1CC3(CC(CNC4(C(F)(F)F)CC4)C3)C1)C2 [Example 49, 2-[6-[[[1-(trifluoromethyl)cyclopro-ropyl]amino]methyl]-2-azaspiro[3.3]heptane-2-carbonyl]-7-oxa-2,5-diazaspiro[3.4]octan-6-one]
IC50: 0.77 nM

O=C1NC2(CO1)CN(C(=O)N1CC3(CC(NS(=O)(=O)c4cccc(C(F)(F)F)c4)C3)C1)C2 [Example 50, N-[2-(6-keto-7-oxa-2,5-diazaspiro[3.4]octane-2-carbonyl)-2-azaspiro[3.3]heptan-6-yl]-3-(trifluoromethyl)benzene-sulfonamide]
IC50: 0.78 nM

O=C1NC2(CO1)CN(C(=O)N1CC3(CCC(Cc4ccc(OC(F)F)nc4)CC3)C1)C2 [Example 105, 2-[7-[[6-(difluoromethoxy)-3-pyridyl]methyl]-2-azaspiro[3.5]nonane-2-carbonyl]-7-oxa-2,5-diazaspiro[3.4]octan-6-one]
IC50: 0.05 nM

CS(=O)(=O)c1ccc(CC2CC3(C2)CN(C(=O)N2CC4(CCC(=O)N4)C2)C3)cc1 [Example 8, 2-[6-(4-mesylbenzyl)-2-azaspiro[3.3]heptane-2-carbonyl]-2,5-diazaspiro[3.4]octan-6-one]
IC50: 15.1 nM

CS(=O)(=O)c1ccc(C[C@@H]2CCC3(C2)CN(C(=O)N2CC4(COCC(=O)N4)C2)C3)cc1 (single isomer, unassigned) [Example 73]
IC50: 80.2 nM

O=C1COCC2(CN(C(=O)N3CC4(CC(Cc5ccc(C(F)(F)F)nn5)C4)C3)C2)N1 [Example 231, 2-[6-[[6-(trifluoromethyl)pyrida-zin-3-yl]methyl]-2-azaspiro[3.3]heptane-2-carbonyl]-8-oxa-2,5-diazaspiro[3.5]nonan-6-one]
IC50: 255 nM

O=C1COCC2(CN(C(=O)N3CC4(CCN(Cc5ccc(C(F)(F)F)cn5)C4)C3)C2)N1 [Example 241, 2-[7-[[5-(trifluoromethyl)-2-pyridyl]methyl]-2,7-diazaspiro[3.4]octane-2-carbonyl]-8-oxa-2,5-diazaspiro[3.5]nonan-6-one]
IC50: 928 nM

O=C1NC2(CO1)CN(C(=O)N1CC3(CCC(Cc4ccc(C(F)(F)F)cn4)CC3)C1)C2 [Example 61, 2-[7-[[5-(trifluoromethyl)-2-pyridyl]methyl]-2-azaspiro[3.5]nonane-2-carbonyl]-7-oxa-2,5-diazaspiro[3.4]octan-6-one]
IC50: 0.19 nM

N#Cc1ccc(CC2CC3(C2)CN(C(=O)N2CC4(CCC(=O)N4)C2)C3)cc1C(F)(F)F [Example 219, 4-[[2-(6-oxo-2,5-diazaspiro[3.4]octane-2-carbonyl)-2-azaspiro[3.3]heptan-6-yl]methyl]-2-(trifluoromethyl)benzoni-trile]
IC50: 0.43 nM

O=C1COCC2(CN(C(=O)N3CC4(CN(Cc5ccc(S(=O)(=O)C(F)(F)F)cc5F)C4)C3)C2)N1 [Example 373, 2-[6-(2-fluoro-4-triflyl-benzyl)-2,6-diazaspiro[3.3]heptane-2-carbonyl]-8-oxa-2,5-diazaspiro[3.5]nonan-6-one]
IC50: 59.2 nM

N#Cc1cc(OC2CC3(C2)CN(C(=O)N2CC4(CCC(=O)N4)C2)C3)ccc1C(F)(F)F [Example 307, 5-[[2-(6-oxo-2,5-diazaspiro[3.4]octane-2-carbonyl)-2-azaspiro[3.3]heptan-6-yl]oxy]-2-(trifluoromethyl)benzoni-trile]
IC50: 48.1 nM

O=C1NC2(CO1)CN(C(=O)N1CC3(CCN(Cc4ccc(C(F)(F)F)cc4F)CC3)C1)C2 [Example 135]
IC50: 1.01 nM

O=C1COCC2(CN(C(=O)N3CC4(CCN(Cc5ccc(S(=O)(=O)C(F)(F)F)cc5)CC4)C3)C2)N1 [Example 83, 2-[7-(4-triflylbenzyl)-2,7-diazaspiro[3.5]nonane-2-carbonyl]-8-oxa-2,5-diazaspiro[3.5]nonan-6-one]
IC50: 24.2 nM

Cn1ncc(C(F)(F)F)c1CC1CC2(C1)CN(C(=O)N1CC3(CCCC(=O)N3)C1)C2 [Example 277, 2-[6-[[2-methyl-4-(trifluoromethyl)pyrazol-3-yl]methyl]-2-azaspiro[3.3]heptane-2-carbonyl]-2,5-diazaspiro[3.5]nonan-6-one]
IC50: 195 nM

O=C1CCC2(CN(C(=O)N3CC4(CC(Cn5ncc(C(F)(F)F)n5)C4)C3)C2)N1 [Example 300, 2-[6-[[4-(trifluoromethyl)triazol-2-yl]methyl]-2-azaspiro[3.3]heptane-2-carbonyl]-2,5-diazaspiro[3.4]octan-6-one]
IC50: 47.4 nM

O=C1NC2(CO1)CN(C(=O)N1CC3(CC(Cc4cncc(F)c4)C3)C1)C2 [Example 37, 2-[6-[(5-fluoro-3-pyridyl)methyl]-2-azaspiro[3.3]heptane-2-carbonyl]-7-oxa-2,5-diazaspiro[3.4]octan-6-one]
IC50: 1.91 nM
